Reference: US9896441B2 (Lycera Corporation, priority 2014, dated 2018)

Assays:
[1] = molecular target: T1, RORγ-LBD (Homo sapiens, UniProt P51449); test: RORγ-Ligand Binding Domain (LBD) TR-FRET Assay; type: biochemical; settings: RORγ-LBD TR-FRET assay; for TR-FRET Assay Max Response: maximum response;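 as to TR-FRET Assay Max Response: 665/615 nm signal ratio set to 100 without ursolic acid or test compound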
T1 construct: made in house; host or cells: SF9 cells (baculovirus); used as diluted lysate
T1 sequence (P51449 269-508 limits assumed): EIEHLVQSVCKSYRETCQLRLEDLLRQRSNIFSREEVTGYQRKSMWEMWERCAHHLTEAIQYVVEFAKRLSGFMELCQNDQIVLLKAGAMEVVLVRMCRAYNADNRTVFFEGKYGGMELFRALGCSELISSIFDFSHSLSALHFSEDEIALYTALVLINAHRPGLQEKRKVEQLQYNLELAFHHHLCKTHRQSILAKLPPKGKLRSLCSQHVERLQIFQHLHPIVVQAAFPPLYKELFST
How it was run: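 Lysate from SF9 cells expressing His-RORγ-LBD is diluted to about 3 nM final in 50 mM Tris pH 7.0 assay buffer. A biotin-tagged SRC1 LXXLL peptide goes in at 200 nM final, plus ursolic acid at 2 μM final. Test compounds carry 1% DMSO final; signal read by TR-FRET.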

[2] = molecular target: T2, Gal4-RORγ-LBD (Homo sapiens, UniProt P51449); test: Gal4-RORγ Luciferase Reporter Assay in HEK-293T Cells; type: cell-based; settings: HEK-293 cells, luciferase reporter, in presence of ursolic acid; for Gal4-RORγ Assay Max Response: maximum response
T2 construct: expressed in transfected cells
T2 sequence (P51449 269-508 limits assumed): T1 sequence (P51449 269-508 limits assumed)
How it was run: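 Max Response was taken as the upper plateau of a 4-parameter logistic fit of luciferase signal, normalized to 100 for wells without ursolic acid or compound. Transiently Gal4-RORγ-LBD/Gal4-luc transfected HEK-293 cells carrying […] ursolic acid were incubated with test compounds (0.2% DMSO) overnight at 37 °C and read with One-Glo.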

EC50 [1] [nM] | EC50 [2] [nM] | SMILES | TR-FRET Assay Max Response [1] | Gal4-RORγ Assay Max Response [2]
< 500 | < 500 | C/C(=C\c1ccc2c(c1)N(S(=O)(=O)c1cccc(C(F)(F)F)c1)C[C@H](CCCN1CCS(=O)(=O)CC1)O2)c1c(F)cccc1Cl [Example 119H, (S,E)-4-(3-(6-(2-(2-chloro-6-fluorophenyl)prop-1-en-1-yl)-4-((3-(trifluoromethyl)-phenyl)sulfonyl)-3,4-dihydro-2H-benzo[b][1,4]oxazin-2-yl)propyl)thiomorpholine 1,1-dioxide] | *** (a value in the range of greater than 150 to 200) | ** (a value in the range of greater than 90 to 150)
< 500 | < 500 | COc1cc(S(=O)(=O)N2C[C@H](CCC(C)(C)O)Oc3ccc(/C=C(\C)c4c(F)cccc4Cl)cc32)ccc1F [Example 120, (S,E)-4-(6-(2-(2-Chloro-6-fluorophenyl)prop-1-en-1-yl)-4-((4-fluoro-3-methoxyphenyl)sulfonyl)-3,4-dihydro-2H-benzo[b][1,4]oxazin-2-yl)-2-methylbutan-2-ol] | *** (a value in the range of greater than 150 to 200) | ** (a value in the range of greater than 90 to 150)
< 500 | < 500 | C/C(=C\c1ccc2c(c1)N(S(=O)(=O)c1cccc(C(F)(F)F)c1)C[C@H](CC(C)(C)O)O2)c1c(F)cccc1Cl [Example 121A, (S,E)-1-(6-(2-(2-chloro-6-fluorophenyl)prop-1-en-1-yl)-4-((3-(trifluoromethyl)-phenyl)sulfonyl)-3,4-dihydro-2H-benzo[b][1,4]oxazin-2-yl)-2-methylpropan-2-ol] | *** (a value in the range of greater than 150 to 200) | ** (a value in the range of greater than 90 to 150)
< 500 | < 500 | C/C(=C\c1ccc2c(c1)N(S(=O)(=O)c1cccc(C(F)(F)F)c1)C[C@H](CCC(C)(C)O)O2)c1c(F)cccc1Cl [Example 121B, (S,E)-4-(6-(2-(2-chloro-6-fluorophenyl)prop-1-en-1-yl)-4-((3-(trifluoromethyl)-phenyl)sulfonyl)-3,4-dihydro-2H-benzo[b][1,4]oxazin-2-yl)-2-methylbutan-2-ol] | ** (a value in the range of greater than 90 to 150) | ** (a value in the range of greater than 90 to 150)
< 500 | < 500 | CCn1cc(S(=O)(=O)N2C[C@H](CCC(C)(C)O)Oc3ccc(/C=C(\C)c4c(F)cccc4Cl)cc32)c(OCCO)n1 [Example 121C, (S,E)-4-(6-(2-(2-chloro-6-fluorophenyl)prop-1-en-1-yl)-4-((1-ethyl-3-(2-hydroxyethoxy)-1H-pyrazol-4-yl)sulfonyl)-3,4-dihydro-2H-benzo[b][1,4]oxazin-2-yl)-2-methylbutan-2-ol] | **** (a value greater than 200) | ** (a value in the range of greater than 90 to 150)
< 500 | < 500 | C/C(=C\c1ccc2c(c1)N(S(=O)(=O)c1cccc(C(F)(F)F)c1)C[C@H](CCN1CCC(C(=O)O)CC1)O2)c1c(F)cccc1Cl [Example 122, (S,E)-1-(2-(6-(2-(2-Chloro-6-fluorophenyl)prop-1-en-1-yl)-4-((3-(trifluoromethyl)phenyl)sulfonyl)-3,4-dihydro-2H-benzo[b][1,4]oxazin-2-yl)ethyl)piperidine-4-carboxylic acid] | *** (a value in the range of greater than 150 to 200) | ** (a value in the range of greater than 90 to 150)
